Assay results taken from ChEMBL document CHEMBL3751699, “Design, synthesis and evaluation of novel 7-aminoalkyl-substituted flavonoid derivatives with improved cholinesterase inhibitory activities” (Bioorg Med Chem, 2016).
pIC50, pKi: −log10 of the molar value. Calls of active or inactive are those of the source. No cut-off for these calls is given here.

Legend:
[1] = Cytotoxicity against rat PC12 cells at 1 uM after 48 hrs by MTT assay; type: cell-based, PC-12; settings: read-out: INH
Acetylcholinesterase [2] = target: T1, Acetylcholinesterase (Electrophorus electricus, UniProt O42275); assay: Inhibition of electric eel AChE using ATC as substrate preincubated for 15 mins followed by substrate addition measured at 1 min intervals by Ellman method
T1 sequence (O42275 whole entry): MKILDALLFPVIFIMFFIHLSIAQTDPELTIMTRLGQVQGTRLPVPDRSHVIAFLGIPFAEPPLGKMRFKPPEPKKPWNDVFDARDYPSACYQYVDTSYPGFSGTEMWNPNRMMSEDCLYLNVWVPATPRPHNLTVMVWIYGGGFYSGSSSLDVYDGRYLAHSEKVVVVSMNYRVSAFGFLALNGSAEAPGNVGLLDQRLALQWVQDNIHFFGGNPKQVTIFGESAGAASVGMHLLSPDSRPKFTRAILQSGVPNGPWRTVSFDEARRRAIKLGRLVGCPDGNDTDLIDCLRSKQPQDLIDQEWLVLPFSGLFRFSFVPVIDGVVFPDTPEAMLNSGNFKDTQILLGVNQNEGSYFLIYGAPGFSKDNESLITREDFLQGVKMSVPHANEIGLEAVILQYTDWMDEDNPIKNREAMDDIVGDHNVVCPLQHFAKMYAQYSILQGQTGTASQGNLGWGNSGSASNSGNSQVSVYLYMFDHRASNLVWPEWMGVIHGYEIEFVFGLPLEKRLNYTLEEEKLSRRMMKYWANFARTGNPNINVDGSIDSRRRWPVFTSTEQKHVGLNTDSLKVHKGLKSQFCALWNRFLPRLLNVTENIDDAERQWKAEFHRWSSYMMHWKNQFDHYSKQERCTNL

[3] = Selectivtiy index, ratio of IC50 for equine serum BChE to IC50 for electric eel AChE
Cholinesterase = Cholinesterase (Equus caballus, UniProt P81908); assay: Inhibition of equine serum BChE using BTC as substrate preincubated for 15 mins followed by substrate addition measured at 1 min intervals by Ellman method
Chain of Cholinesterase (P81908 whole entry): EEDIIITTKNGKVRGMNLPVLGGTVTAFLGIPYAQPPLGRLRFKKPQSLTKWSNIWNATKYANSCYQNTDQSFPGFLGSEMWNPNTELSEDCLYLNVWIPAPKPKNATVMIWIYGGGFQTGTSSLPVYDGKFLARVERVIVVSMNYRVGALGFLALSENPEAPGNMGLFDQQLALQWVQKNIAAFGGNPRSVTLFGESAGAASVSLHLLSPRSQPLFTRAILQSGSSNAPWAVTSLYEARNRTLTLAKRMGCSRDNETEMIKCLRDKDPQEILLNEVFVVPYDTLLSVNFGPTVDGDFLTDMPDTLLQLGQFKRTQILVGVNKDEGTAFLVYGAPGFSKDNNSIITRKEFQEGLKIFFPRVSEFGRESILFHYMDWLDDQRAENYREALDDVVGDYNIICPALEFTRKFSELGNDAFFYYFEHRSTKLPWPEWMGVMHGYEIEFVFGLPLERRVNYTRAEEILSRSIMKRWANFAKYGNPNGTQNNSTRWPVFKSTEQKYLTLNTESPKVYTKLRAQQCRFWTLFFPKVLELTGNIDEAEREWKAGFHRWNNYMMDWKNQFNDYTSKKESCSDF

[4] = Cytotoxicity against rat PC12 cells at 10 uM after 48 hrs by MTT assay; type: cell-based, PC-12; settings: read-out: INH
[5] = Cytotoxicity against human HepG2 cells at 10 uM after 48 hrs by MTT assay; type: cell-based; settings: read-out: INH
[6] = Cytotoxicity against human HepG2 cells at 1 uM after 48 hrs by MTT assay; type: cell-based; settings: read-out: INH
Acetylcholinesterase [7] = target: T1, Acetylcholinesterase; assay: Mixed-type inhibition of electric eel AChE using ATC as substrate assessed as hydrolysis of ATC preincubated with protein for 15 mins followed by substrate addition by Lineweaver-Burk plot analysis
[8] = target: Cholinesterase (Equus caballus) (UniProt P81908); assay: Mixed-type inhibition of equine serum BChE using BTC as substrate assessed as hydrolysis of BTC preincubated with protein for 15 mins followed by substrate addition by Lineweaver-Burk plot analysis
Chain of Cholinesterase (Equus caballus) (P81908 whole entry): as above

[9] = target: Acetylcholinesterase (Electrophorus electricus) (UniProt O42275); assay: Potency index, ratio of IC50 for rivastigmine to IC50 for test compound for inhibition of electric eel AChE by Ellman method
Chain of Acetylcholinesterase (Electrophorus electricus) (O42275 24-633 limits assumed): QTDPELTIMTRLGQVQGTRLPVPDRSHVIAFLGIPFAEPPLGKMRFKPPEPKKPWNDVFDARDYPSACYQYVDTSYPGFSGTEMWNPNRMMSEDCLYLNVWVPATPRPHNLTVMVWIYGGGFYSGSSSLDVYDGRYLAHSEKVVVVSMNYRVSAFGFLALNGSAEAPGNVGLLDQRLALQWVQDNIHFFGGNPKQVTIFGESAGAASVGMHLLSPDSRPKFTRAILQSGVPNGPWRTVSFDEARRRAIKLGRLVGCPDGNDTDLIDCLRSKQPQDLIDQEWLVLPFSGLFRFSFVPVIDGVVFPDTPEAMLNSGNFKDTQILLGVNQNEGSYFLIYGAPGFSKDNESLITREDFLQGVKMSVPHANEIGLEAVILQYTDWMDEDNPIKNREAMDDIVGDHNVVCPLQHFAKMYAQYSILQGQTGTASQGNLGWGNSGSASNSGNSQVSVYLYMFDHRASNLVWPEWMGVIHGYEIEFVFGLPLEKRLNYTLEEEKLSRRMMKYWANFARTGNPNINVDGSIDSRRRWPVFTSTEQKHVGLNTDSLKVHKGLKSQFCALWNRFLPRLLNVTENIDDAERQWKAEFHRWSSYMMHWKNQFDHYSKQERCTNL

Row | Structure (SMILES) | cytotoxicity at 48 h, 1 µM [1] [%] | pIC50 (Acetylcholinesterase [2]) | Ratio IC50 [3] | pIC50 (Cholinesterase) | cytotoxicity at 48 h, 10 µM [4] [%] | cytotoxicity at 48 h, 10 µM [5] [%] | cytotoxicity at 48 h, 1 µM [6] [%] | pKi (Acetylcholinesterase [7]) | inhibition [8] | Ratio IC50 [9]
1 | Cc1ccc(-c2cc(=O)c3ccc(OCCCCCCCCN4CCCC4)cc3o2)cc1 | -0.55 | 5.90 | 1.54 | 5.72 | -0.03 | 77.1 | 9.17 | – | – | –
2 | O=c1cc(-c2ccc(N3CCCC3)cc2)oc2cc(OCCCCCCCCN3CCCC3)ccc12 | 0.29 | 5.86 | 2.97 | 5.39 | -9.56 | 19 | 5.74 | – | – | –
3 | O=c1cc(-c2ccc(Cl)cc2)oc2cc(OCCCCCCCCN3CCCC3)ccc12 | 6.27 | 5.95 | 3.09 | 5.46 | -1.7 | 25.7 | 6.39 | – | – | –
4 | O=c1cc(-c2cccc3ccccc23)oc2cc(OCCCCCCCCN3CCCC3)ccc12 | 3 | 6.14 | 0.58 | 6.38 | 9.01 | 18.9 | 4.42 | 6.69 | Active | –
5 | O=c1cc(-c2ccc(O)cc2)oc2cc(OCCCCCCCCN3CCCC3)ccc12 | 0.7 | 5.92 | 3.79 | 5.34 | 7.42 | 21.4 | 18.5 | – | – | –
6 | COc1ccc(-c2cc(=O)c3ccc(OCCCCCCCCN4CCCC4)cc3o2)cc1OC | 7.29 | 6.08 | 4.13 | 5.46 | -2.94 | 76 | 13.5 | – | – | –
7 | O=c1cc(-c2ccccc2O)oc2cc(OCCCCCCCCN3CCCC3)ccc12 | -7.71 | 5.51 | 0.41 | 5.90 | 6.61 | 60.6 | 5.92 | – | – | –
8 | O=c1cc(-c2cccc(OCc3ccccc3)c2)oc2cc(OCCCCCCCCN3CCCC3)ccc12 | 0.79 | 5.80 | > 15.8 | < 4.60 | -2.53 | 30.6 | 6.63 | – | – | –
9 | COc1ccc(-c2cc(=O)c3ccc(OCCCCCCCCN4CCCC4)cc3o2)cc1 | -0.15 | 5.77 | 3.19 | 5.27 | -6.72 | 21.5 | 6.69 | – | – | –
10 | O=c1cc(-c2ccc(Br)cc2)oc2cc(OCCCCCCCCN3CCCC3)ccc12 | 2.5 | 5.67 | 4.77 | 4.99 | -12.5 | 10.8 | 13.3 | – | – | –
11 | COc1cc(-c2cc(=O)c3ccc(OCCCCCCCCN4CCCC4)cc3o2)cc(OC)c1OC | -4.47 | 5.97 | 2.04 | 5.66 | -13.8 | 41.4 | 16.3 | – | – | –
12 | O=c1cc(-c2cccc(O)c2)oc2cc(OCCCCCCCCN3CCCC3)ccc12 | -4.43 | 5.95 | 4.39 | 5.31 | -6.56 | 43.9 | 19 | – | – | –
13 | Nc1c2c(nc3ccccc13)CCCC2 [TACRINE] | 4.62 | – | – | – | 10.2 | – | – | – | – | –
14 | COc1cccc(-c2cc(=O)c3ccc(OCCCCCCCCN4CCCC4)cc3o2)c1 | 3.53 | 6.17 | 3.42 | 5.64 | -18.2 | 23.7 | 16.2 | – | – | –
15 | O=c1cc(-c2ccc(-c3ccccc3)cc2)oc2cc(OCCCCCCCCN3CCCC3)ccc12 | 0.46 | 5.32 | > 5.21 | < 4.60 | 68.9 | 71.9 | 13.9 | – | – | –
16 | O=c1cc(-c2ccc(OCc3ccccc3)cc2)oc2cc(OCCCCCCCCN3CCCC3)ccc12 | -2.83 | 5.72 | > 13.2 | < 4.60 | 1.37 | 54.3 | 10.4 | – | – | –
17 | O=c1cc(-c2ccccc2OCc2ccccc2)oc2cc(OCCCCCCCCN3CCCC3)ccc12 | 0.47 | 5.70 | 2.62 | 5.28 | 22.9 | 34.1 | 19.7 | – | – | –
18 | COc1ccccc1-c1cc(=O)c2ccc(OCCCCCCCCN3CCCC3)cc2o1 | 3.08 | 6.19 | 1.19 | 6.12 | 3.4 | 24.3 | 5.9 | – | – | 10
19 | O=c1cc(-c2ccccc2)oc2cc(OCCCCCCCCN3CCCC3)ccc12 | -2.83 | 5.96 | 2.05 | 5.65 | 1.37 | 8.97 | 11.3 | – | – | –
